Source: patent US4748161A, “Triterpenyl esters of organic acids and hypolipidemic agents composed of them” (Amano Pharmaceutical Co., Ltd., priority 1984, dated 1988)

Tested on: serum lipids and serum lipid hydroperoxide
Test: Pharmacological test method A for anti-hyperlipidemic activity (serum lipids, 2 weeks feeding)
Assay type: in vivo, male Wistar strain rats
Conditions: for AI [(TC - HDL-C)/(HDL-C)] / HDL-C in serum / LPO in serum / PL in serum / TC in serum / TG in serum: 1% in hyperlipidemic diet, 2 weeks; for AI % of diff. / AI Diff. / HDL-C % of diff. / HDL-C Diff. / LPO % of diff. / LPO Diff. / PL % of diff. / PL Diff. / TC % of diff. / TC Diff. / TG % of diff. / TG Diff.: versus control group
Experimental: Male Wistar strain rats (100±lg, each 10 rats were formed into a group) were used as test animals. Diet for the control group was prepared by thorough mixing of 20% casein, 62.5% glucose, 10% hydrogenated coconut oil, 2% agar powder, 4% vitamin-containing salt mixture, 1% cholesterol, and 0.5% cholic acid (this composition is described by Fukushima et al, in "Yakugaku Zassi", 89, No. 6, pp. 857-862 (1962)). Diet for the test groups was prepared by good mixing of 1% each of cycloartenol, 24-methylenecycloartanol, and cyclobranol with the control group's diet. Each rat was kept in a cage at a constant temperature of 23±1° C. and a constant R.H. of 55±5% for 2 weeks, during which 10 g/day of the prescribed was given. Finally the rats were fasted from food except water for 16 hours (from 4 p.m. of the 14th test day to 8 a.m. of the 15th test day), and under anesthesia with pentbarbital sodium (tradename: Nembutal), blood was taken from each rat through the descending abdominal arota. Then, TC, HDL-C, TG, PL, and LPO in the serum were measured in the manner that will be described below.
A TC kit-K (supplied by Nippon Shoji Kaisha, Ltd.) was used. The principle of this determination is as follows: The ester of cholesterol in the serum is hydrolyzed with cholesterol-ester hydrolase into free cholesterol and fatty acids. All the free cholesterol is oxidized with cholesterol oxydase to form Δ^4 -cholestenone and hydrogen peroxide. Phenol and 4-aminoantipyrin are oxidatively condensed together by the formed hydrogen peroxide and peroxydase. The produced red quinone coloring matter is measured by colorimetry for absorbance at 500 nm using a spectrophotometer, thereby determining the TC:
The color-developing liquid (3.0 ml) is well mixed with the sample serum (0.02 ml). The mixture once heated at 37° C. for 15 minutes, is measured for absorbance at 500 nm with a spectrophotometer. The found absorbance is denoted by EA. On the other hand, the color-developing liquid (3.0 ml) is well mixed with the standard solution. The mixture is treated and measured for absorbance at 500 nm in the same manner as the above. This found absorbance is denoted by ES. Both EA and ES are determined with reference to the value of the blank test conducted using the color-developing liquid (3.0 ml) alone. [formula]
An HDL-C kit-N (supplied by Nippon Shoji Kaisha, Ltd.) was used. […] (VLDL) and lo density lipoprotein (LDL) in the serum is precipitated by the action of heparin. The precipitate is separated by centrifugation. High density lipoprotein (HDL) is dissolved in the separated supernatant. Esters of cholesterol in this fraction is hydrolyzed with cholesterol-ester hydrolase into free cholesterol and fatty acids. All the free cholesterol is oxidized with cholesterol oxydase to form Δ^4 -cholestenone and hydrogen peroxide. Phenol and 4-aminoantipyrine are oxidatively condensed together by the formed hydrogen peroxide and peroxydase. The produced red quinone coloring matter is measured by colorimetry for absorbance at 500 nm using a spectrophotometer, thereby determining the HDL-C.
A PL kit-K (supplied by Nippon Shoji Kaisha, Ltd.) was used for the determination. Lecithin, sphingomyelin, and lysolecithin are decomposed by phospholipase D into choline and phosphatidic acid, N-acylsphingosyl phosphate, or lysophosphatidic acid, respectively. The resulting choline is quantitatively decomposed by choline oxydase into hydrogen peroxide and betaine. With this hydrogen peroxide, and aid of peroxydase, phenol and 4-aminoantipyrin are condensed into red quinone pigment, then the absorbance at 500 nm of which is measured with a spectrophotometer, thereby determining the PL.
Serum TG level was determined by means of a triglyceride test kit (supplied by Wako Pure Chemical Industries, Ltd.) in which acetylacetone is used for a reagent, in the following manner: Serum proteins are precipitated, when isopropyl alcohol and the sample serum are mixed. […]

CC(C)=CCCC(C)C1CCC2(C)C3CCC4C(C)(C)C(OC(=O)c5cccnc5)CCC45CC35CCC12C (stereo not shown) [Example 24, cycloartenyl nicotinate]
AI [(TC - HDL-C)/(HDL-C)]: 0.748 | HDL-C in serum: 94.0 mg/dL | LPO in serum: 1.93 nmol/mL | PL in serum: 133.8 mg/dL | TC in serum: 164.3 mg/dL | TG in serum: 34.7 mg/dL | AI % of diff.: -38.8% | AI Diff.: -0.474 | HDL-C % of diff.: +8.7% | HDL-C Diff.: +7.5 mg/dl | LPO % of diff.: -13.7% | LPO Diff.: -0.31 nmol/mL | PL % of diff.: -22.5% | PL Diff.: -38.8 mg/dL | TC % of diff.: -14.5% | TC Diff.: -27.9 mg/dL | TG % of diff.: 4.3% | TG Diff.: -1.6 mg/dL

CCCCC/C=C\C/C=C\CCCCCCCC(=O)OC1CCC23CC24CCC2(C)C(C(C)CCC=C(C)C)CCC2(C)C4CCC3C1(C)C (stereo not shown) [Example 25, cycloartenyl linolate]
AI [(TC - HDL-C)/(HDL-C)]: 0.705 | HDL-C in serum: 92.3 mg/dL | LPO in serum: 1.67 nmol/mL | PL in serum: 144.6 mg/dL | TC in serum: 157.4 mg/dL | TG in serum: 34.0 mg/dL | AI % of diff.: -42.3% | AI Diff.: -0.517 | HDL-C % of diff.: +6.7% | HDL-C Diff.: +5.8 mg/dl | LPO % of diff.: -25.6% | LPO Diff.: -0.57 nmol/mL | PL % of diff.: -16.2% | PL Diff.: -28.0 mg/dL | TC % of diff.: -18.1% | TC Diff.: -34.8 mg/dL | TG % of diff.: -6.2% | TG Diff.: -2.3 mg/dL

CC(C)=CCCC(C)C1CCC2(C)C3CCC4C(C)(C)C(OC(=O)c5ccc(O)c(O)c5)CCC45CC35CCC12C (stereo not shown) [Example 27, cycloartenyl-3,4-dihydroxybenzoate]
AI [(TC - HDL-C)/(HDL-C)]: 0.955 | HDL-C in serum: 95.2 mg/dL | LPO in serum: 1.99 nmol/mL | PL in serum: 160.3 mg/dL | TC in serum: 186.1 mg/dL | TG in serum: 40.4 mg/dL | AI % of diff.: -43.3% | AI Diff.: -0.729 | HDL-C % of diff.: +17.7% | HDL-C Diff.: +14.3 mg/dl | LPO % of diff.: -14.0% | LPO Diff.: -0.32 nmol/mL | PL % of diff.: -10.8% | PL Diff.: -19.4 mg/dL | TC % of diff.: -14.3% | TC Diff.: -31.0 mg/dL | TG % of diff.: -5.5% | TG Diff.: -2.4 mg/dL

COc1cc(C(=O)OC2CCC34CC35CCC3(C)C(C(C)CCC=C(C)C)CCC3(C)C5CCC4C2(C)C)ccc1O (stereo not shown) [Example 29, cycloartenyl-4-hydroxy-3-methoxybenzoate]
AI [(TC - HDL-C)/(HDL-C)]: 0.611 | HDL-C in serum: 101.0 mg/dL | LPO in serum: 1.95 nmol/mL | PL in serum: 160.6 mg/dL | TC in serum: 162.7 mg/dL | TG in serum: 32.7 mg/dL | AI % of diff.: -39.0% | AI Diff.: -0.391 | HDL-C % of diff.: +5.0% | HDL-C Diff.: +4.8 mg/dl | LPO % of diff.: -16.3% | LPO Diff.: -0.38 nmol/mL | PL % of diff.: -11.2% | PL Diff.: -20.3 mg/dL | TC % of diff.: -15.5% | TC Diff.: -29.9 mg/dL | TG % of diff.: -1.5% | TG Diff.: -0.5 mg/dL

CC(C)=C(C)CCC(C)C1CCC2(C)C3CCC4C(C)(C)C(OC(=O)/C=C/c5ccc(O)c(O)c5)CCC45CC35CCC12C (stereo not shown) [Example 32, cyclobranyl-3,4-dihydroxycinnamate]
AI [(TC - HDL-C)/(HDL-C)]: 1.135 | HDL-C in serum: 89.2 mg/dL | LPO in serum: 2.06 nmol/mL | PL in serum: 168.2 mg/dL | TC in serum: 190.4 mg/dL | TG in serum: 40.7 mg/dL | AI % of diff.: -32.6% | HDL-C % of diff.: +10.2% | HDL-C Diff.: +8.3 mg/dl | LPO % of diff.: -10.7% | LPO Diff.: -0.25 nmol/mL | PL % of diff.: -6.4% | PL Diff.: -11.5 mg/dL | TC % of diff.: -12.3% | TC Diff.: -26.7 mg/dL | TG % of diff.: -4.8% | TG Diff.: -2.1 mg/dL

COc1cc(C(=O)OC2CCC34CC35CCC3(C)C(C(C)CCC(C)=C(C)C)CCC3(C)C5CCC4C2(C)C)ccc1O (stereo not shown) [Example 37, cyclobranyl-4-hydroxy-3-methoxybenzoate]
AI [(TC - HDL-C)/(HDL-C)]: 0.460 | HDL-C in serum: 110.4 mg/dL | LPO in serum: 1.91 nmol/mL | PL in serum: 155.4 mg/dL | TC in serum: 161.2 mg/dL | TG in serum: 31.0 mg/dL | AI % of diff.: -54.1% | AI Diff.: -0.542 | HDL-C % of diff.: +14.8% | HDL-C Diff.: +14.2 mg/dl | LPO % of diff.: -18.0% | LPO Diff.: -0.42 nmol/mL | PL % of diff.: -14.1% | PL Diff.: -25.5 mg/dL | TC % of diff.: -16.3% | TC Diff.: -31.4 mg/dL | TG % of diff.: -6.6% | TG Diff.: -2.2 mg/dL

CC(C)=C(C)CCC(C)C1CCC2(C)C3CCC4C(C)(C)C(OC(=O)c5ccc(O)c(O)c5)CCC45CC35CCC12C (stereo not shown) [Example 39, cyclobranyl-3,4-dihydroxybenzoate]
AI [(TC - HDL-C)/(HDL-C)]: 0.803 | HDL-C in serum: 98.1 mg/dL | LPO in serum: 1.99 nmol/mL | PL in serum: 155.1 mg/dL | TC in serum: 176.9 mg/dL | TG in serum: 39.8 mg/dL | AI % of diff.: -52.3% | AI Diff.: -0.881 | HDL-C % of diff.: +21.2% | HDL-C Diff.: +17.2 mg/dl | LPO % of diff.: -14.0% | LPO Diff.: -0.32 nmol/mL | PL % of diff.: -13.7% | PL Diff.: -24.6 mg/dL | TC % of diff.: -18.5% | TC Diff.: -40.2 mg/dL | TG % of diff.: -6.9% | TG Diff.: -3.0 mg/dL

CC(C)=C(C)CCC(C)C1CCC2(C)C3CCC4C(C)(C)C(OC(=O)c5ccccc5O)CCC45CC35CCC12C (stereo not shown) [Example 41, cyclobranyl-o-hydroxybenzoate]
AI [(TC - HDL-C)/(HDL-C)]: 0.890 | HDL-C in serum: 92.9 mg/dL | LPO in serum: 2.01 nmol/mL | PL in serum: 156.7 mg/dL | TC in serum: 175.6 mg/dL | TG in serum: 41.5 mg/dL | AI % of diff.: -47.1% | AI Diff.: -0.794 | HDL-C % of diff.: +14.8% | HDL-C Diff.: +12.0 mg/dl | LPO % of diff.: -13.0% | LPO Diff.: -0.30 nmol/mL | PL % of diff.: -12.8% | PL Diff.: -23.0 mg/dL | TC % of diff.: 19.1% | TC Diff.: -41.5 mg/dL | TG % of diff.: -3.0% | TG Diff.: -1.3 mg/dL

CC(C)=C(C)CCC(C)C1CCC2(C)C3CCC4C(C)(C)C(OC(=O)c5ccc(N)cc5)CCC45CC35CCC12C (stereo not shown) [Example 43, cyclobranyl-p-aminobenzoate]
AI [(TC - HDL-C)/(HDL-C)]: 0.713 | HDL-C in serum: 91.9 mg/dL | LPO in serum: 1.54 nmol/mL | PL in serum: 146.0 mg/dL | TC in serum: 157.4 mg/dL | TG in serum: 33.3 mg/dL | AI % of diff.: -41.7% | AI Diff.: -0.509 | HDL-C % of diff.: +6.2% | HDL-C Diff.: +5.4 mg/dl | LPO % of diff.: -31.3% | LPO Diff.: -0.70 nmol/mL | PL % of diff.: -15.4% | TC % of diff.: -18.1% | TC Diff.: -34.8 mg/dL | TG % of diff.: -8.2% | TG Diff.: -3.0 mg/dL
